Data set [1] deals with Glutamate NMDA receptor. The data set can be described thus: Evaluated for their affinity at the PCP site for displacement of [3H]TCP in rat brain homogenates. It is filed as tissue-based. In general terms: Loss of bound radioactivity is the signal in a displacement assay; it reports binding, not function.
For data set [2], the species on record is Rattus norvegicus. The data set can be described thus: Compound was evaluated for the inhibition of glutamate-stimulated calcium influx (GSCI). Type of data set: functional.
In data set [3] the test system is Mus musculus. As to the kind of experiment: Compound was evaluated for in vivo activity assessed by prevention of NMDA-induced lethality in mice (N= 10 animals). Type of data set: functional.
The nature of data set [4]: Partition coefficient determined using standard shake flask method at pH 7.4. Type of data set: physicochemical. The following applies: octanol/water.
The species entered for data set [5] is Rattus norvegicus. As to the kind of experiment: Compound was evaluated for the inhibition of glutamate-stimulated calcium influx (GSCI); (N=1). It is filed as functional.
For data set [6], the target named is Glutamate NMDA receptor (Rattus norvegicus) (UniProt P35439+Q00959+Q00960+Q00961+Q62645+Q8VHN2+Q9R1M7). As to the kind of experiment: (§1) Percent inhibition at the PCP site for displacement of [3H]TCP in rat brain homogenates at […]. It is filed as tissue-based.
Data set [7] addresses Glutamate NMDA receptor. The data set is described as §1. It is filed as tissue-based.

Here are results for 36 compounds from ChEMBL document CHEMBL1126612, “Synthesis and pharmacological evaluation of hexahydrofluorenamines as noncompetitive antagonists at the N-methyl-D-aspartate receptor” (J Med Chem, 1993).

The structures appear in SMILES notation.

Usually IC50 stands for the concentration at which inhibition is half-maximal. What is called ED50 is the dose that gives a 50% effect, or the effect in half of the subjects. Read a low ED50 as greater potency. With `N[C@]12CCCC[C@H]1Cc1ccccc12`, the 50% inhibitory concentration (IC50) amounted to 13.4 nM in data set [1] and 510 nM in data set [2]. In data set [3], this compound displayed an ED50 of 0.61 mg/kg.
The logD is the decadic logarithm of the distribution of all forms, ionised or not, between an organic phase and buffer at a given pH. Lower therefore signals a more hydrophilic compound. As for `C=C1c2ccccc2C2(NC)CCCCC12` (centres undefined), the half-maximal inhibitory concentration (IC50) in data set [1] amounted to 528 nM. Moreover, the pH-dependent lipophilicity (logD) in data set [4] was determined as 0.76.
Regarding `CN[C@@]12CC[C@@H](CN)C[C@@H]1Cc1ccccc12`, the IC50 in data set [1] came to 1.84 nM; in data set [5] it was 765000 nM. Also, the pH-dependent lipophilicity (logD) in data set [4] was -1.42.
`CNC12CCCC1Cc1ccccc12` (centres undefined) yielded an IC50 in data set [1] of 350 nM.
The term inhibition denotes the relative decrease from the control value, in per cent. A high value points to a strong effect. `CNC12CCCCC1Cc1cc(OC)ccc12` (centres undefined) had an inhibition in data set [6] of 11%. Also, the pH-dependent lipophilicity (logD) in data set [4] is 0.21.
Regarding `CNC[C@@H]1CC[C@@]2(NC)c3ccccc3C[C@H]2C1`, in data set [6], the inhibition was found to be 0%. The same compound returned a log distribution coefficient (logD) in data set [4] of -2.65.
`NC12CCC(CO)CC1Cc1ccccc12` (centres undefined) gave a half-inhibitory concentration (IC50) in data set [1] of 253 nM. In data set [4], this compound yielded a log distribution coefficient (logD) of 0.86.
Turning to `CCN[C@]12CCCC[C@H]1Cc1ccccc12`, the half-inhibitory concentration (IC50) in data set [1] amounted to 55.2 nM; in data set [5], 61 nM. This compound yielded an ED50 in data set [3] of 0.2 mg/kg.
Regarding `C[C@]12N[C@H](Cc3ccccc31)c1ccccc12` [DIZOCILPINE], the 50% inhibitory concentration (IC50) in data set [2] is 54 nM. It took a dose of 0.22 mg/kg to reach the 50% effect level in data set [3] (ED50). In data set [4], this compound showed a logD of 2.1.
In the case of `CNC12CC=CCC1c1ccccc1C2` (centres undefined), in data set [6], the inhibition worked out at 0%. This compound returned a logD in data set [4] of 0.04.
Turning to `CNC12CCCCCC1Cc1ccccc12` (centres undefined), the 50% inhibitory concentration (IC50) was 113 nM in data set [1] and 1200 nM in data set [5]. This compound also had a pH-dependent lipophilicity (logD) in data set [4] of 0.66.
With `CNC12c3ccccc3CC1CCCC2C` (centres undefined), the half-maximal inhibitory concentration (IC50) in data set [1] was determined as 79 nM; in data set [5], 390 nM. Further, the ED50 in data set [3] is 0.8 mg/kg.
With `NC12CCCCCC1Cc1ccccc12` (centres undefined), the IC50 in data set [1] was determined as 304 nM.
As to `CNC12CCCCC1Cc1ccc(OC)cc12` (centres undefined), the values for the half-maximal inhibitory concentration (IC50) in data set [1] and in data set [5] were 22 nM and 160 nM, respectively. For the same compound, in data set [3], the ED50 came out at 0.51 mg/kg. This compound also registered a logD in data set [4] of 0.65.
For the compound `c1ccc(CNC23CCCCCC2Cc2ccccc23)cc1` (centres undefined), the inhibition in data set [6] was determined as 6%.
In turn, `NCC12CCCCC1c1ccccc1C2` (centres undefined) came in with an inhibition in data set [6] of 1%.
In data set [1], `CNC12CCC(CO)CC1Cc1ccccc12` (centres undefined) registered an IC50 of 3940 nM. The logD in data set [4] stood at 0.17.
On to `c1ccc(CNC23CCCC2Cc2ccccc23)cc1` (centres undefined), for which, in data set [6], the inhibition stood at 4%.
`CC[C@]1(c2ccccc2)OC[C@H]([C@@H]2CCCCN2)O1` [ETOXADROL] had a concentration for half-maximal inhibition (IC50) in data set [1] of 107 nM.
Consider `NC12CCCCC1c1ccccc1C2` (centres undefined), for which the inhibition in data set [6] is 0%. This compound showed a logD in data set [4] of 0.3.
In the case of `CNC12CCCCC1Cc1ccsc12` (centres undefined), in data set [1], the IC50 was 66 nM. The median effective dose (ED50) in data set [3] was found to be 1.1 mg/kg.
For the compound `CCNC12CCCCC1Cc1c(C)cccc12` (centres undefined), the 50% inhibitory concentration (IC50) in data set [1] worked out at 323 nM.
In data set [7], `NC12CCCC1Cc1ccccc12` (centres undefined) came in with a 50% inhibitory concentration (IC50) of 5 nM. Besides, the logD in data set [4] was -0.28.
For `CCNC12CCCCC1Oc1ccccc12` (centres undefined), the IC50 came to 141 nM in data set [1] and 1800 nM in data set [5]. In data set [3], this compound had a 50% effective dose (ED50) of 1.5 mg/kg.
`c1ccc(CNC23CCCCC2Cc2ccsc23)cc1` (centres undefined) registered an inhibition in data set [6] of 10%.
Take `c1ccc(C2(N3CCCCC3)CCCCC2)cc1` [PHENCYCLIDINE]: the figures for the 50% inhibitory concentration (IC50) in data set [1] and in data set [2] were 36.5 nM and 200 nM, respectively. The same compound gave an ED50 in data set [3] of 0.55 mg/kg. The compound further had a pH-dependent lipophilicity (logD) in data set [4] of 3.63.
As for `CNC12CCC(C)CC1Cc1ccccc12` (centres undefined), in data set [1], the IC50 was found to be 95 nM.
Regarding `CNC12CCCCC1c1ccccc1C2` (centres undefined), the inhibition in data set [6] stood at 0%. The compound further gave a pH-dependent lipophilicity (logD) in data set [4] of 0.62.
With `CNC12CCCCC1Sc1ccccc12` (centres undefined), the 50% inhibitory concentration (IC50) in data set [1] was found to be 11.3 nM; in data set [5], 210 nM. In addition, the 50% effect level in data set [3] (ED50) was put at a dose of 0.41 mg/kg.
Regarding `CN[C@@]12CCCC[C@@H]1Cc1ccccc12`, the half-inhibitory concentration (IC50) is 107 nM in data set [1] and 2550 nM in data set [2]. For the same compound, in data set [3], the ED50 stood at 10 mg/kg. In data set [4], this compound registered a logD of 0.43.
The like results for `CN[C@@]12CCCC[C@@H]1Cc1ccccc12.CN[C@]12CCCC[C@H]1Cc1ccccc12` were, in that order, 30 nM, 100 nM, 0.58 mg/kg and 0.54.
As to `CNC12CCCCC1Cc1ccc(O)cc12` (centres undefined), the IC50 amounted to 16.5 nM in data set [1] and 140 nM in data set [5]. The compound further registered an ED50 in data set [3] of 0.99 mg/kg.
`CN[C@]12CCCC[C@H]1Cc1ccccc12`: the half-inhibitory concentration (IC50) amounted to 9.9 nM in data set [1] and 120 nM in data set [2]. Moreover, the ED50 in data set [3] is 0.1 mg/kg. This compound came in with a logD in data set [4] of 0.33.
The compound `CC1CCCC2Cc3ccccc3C12N` (centres undefined) displayed an IC50 in data set [1] of 159 nM.
Turning to `C=C1c2ccccc2C2(N)CCCCC12` (centres undefined), the inhibition in data set [6] came to 4%.
Compound `CNCC12CCCCC1c1ccccc1C2` (centres undefined) displayed an inhibition in data set [6] of 0%.
